Results: patent US20120202787A1, “Novel Heteroaryl Imidazoles And Heteroaryl Triazoles As Gamma-Secretase Modulators” (Pfizer Inc., priority 2009, published 2012)

Test system: γ-secretase (production of amyloid beta protein Aβ (1-42))
Assay: Cell-based γ-secretase assay with ELISA readout (Aβ (1-42) production)
Parameters: species or system human WT-APP overexpressing CHO cells
Conditions: Geometric mean of at least 2 determinations; Table 3; read-out: Aβ 42 IC50 (μM)*
Description: Cell-Based γ-Secretase Assay with ELISA Readout
The ability of compounds to modulate production of amyloid beta protein Aβ (1-42) was determined using human WT-APP overexpressing CHO cells. Cells were plated at 22,000 cells/100 μL well in 96 well tissue culture treated, clear plates (Falcon) in DMEM/F12 based medium and incubated for 24 hours at 37° C. Compounds for testing were diluted in 100% DMSO to achieve an eleven points, half log, dose response for IC50 determinations. Compounds were added in fresh medium to achieve 1% final DMSO. Appropriate vehicle and inhibitor controls were added to obtain maximum and minimum inhibition values for the assay before the plates were incubated for about 24 hours at 37° C.
Coating of ELISA assay plates was initiated by addition of 50 μL/well of an in-house Aβ (1-42) specific antibody at (4 μg/mL) in 0.1 M NaHCO3 (pH 9.0) into black 384-well Maxisorp® plates (Nunc) and incubated overnight at 4° C. The capture antibody was then aspirated from the ELISA assay plates and 100 μL/well of Blocking Buffer (Dulbecco's PBS, 1.5% BSA (Sigma A7030)) added. Ambient temperature incubation was allowed to proceed for a minimum of two hours before washing 2×100 μL with Wash Buffer (Dulbecco's PBS, 0.05% Tween 20). Assay Buffer (Dulbecco's PBS, 1.0% BSA (Sigma A7030), 0.05% Tween 20) 20 μL/well was then added.
After incubation overnight at 37° C., 5% CO2, 40 μL (in duplicate) of experimental conditioned media were transferred into wells of the blocked ELISA plates containing the capture antibody, followed by overnight incubation at 4° C. Cell toxicity was measured in the corresponding cells after removal of the media for the Aβ (1-42) assay by a colorimetric cell proliferation assay (CellTiter 96® AQueous One Solution Cell Proliferation Assay, Promega) according to the manufacturer's instructions.
After overnight incubation of the ELISA assay plates at 4° C., unbound Aβ peptides were removed thorough (4×100 μL) washes with Wash Buffer. Europium (Eu) labeled (custom labeled, Perkin Elmer) Aβ (1-16) 6e10 Monoclonal Antibody (Covance #SIG-39320 was added, (50 μL /well Eu-6e10 @ 1:5000, 20 uM EDTA) in Assay Buffer. Incubation at ambient temperature for a minimum of 2 hours was followed by (4×100 μL) washes with Wash Buffer, before 50 μL/well of Delfia Enhancement Solution (Perkin Elmer) was added. Following a one hour ambient temperature incubation, the plates were read on an EnVision plate reader (Perkin Elmer) using standard DELFIA TRF settings. Data analysis including inhibitory IC50 determination was performed using nonlinear regression fit analysis (in-house software) and the appropriate plate mean values for the maximum and minimum inhibition controls.

| SMILES | IC50 [µM] |
| --- | --- |
| COc1nc(C(=O)NC2COc3ccc(C(F)(F)F)c(F)c32)ccc1-n1cnc(C)c1 (centres unmarked) [Example 54, N-[4-fluoro-5-(trifluoromethyl)-2,3-dihydro-1-benzofuran-3-yl]-6-methoxy-5-(4-methyl-1H-imidazol-1-yl)pyridine-2-carboxamide] | 0.411 |
| COc1nc(C(=O)NC2COc3ccc(C(F)(F)F)cc32)ccc1-n1cnc(C)c1 (centres unmarked) [Example 56, 6-methoxy-5-(4-methy-1H-imidazol-1-yl)-N-[5-(trifluoromethyl)-2,3-dihydro-1-benzofuran-3-yl]pyridine-2-carboxamide] | 0.478 |
| COc1nc(C(=O)NC2COc3cc(F)c(Cl)cc32)ccc1-n1cnc(C)c1 (centres unmarked) [Example 55, N-[5-chloro-6-fluoro-2,3-dihydro-1-benzofuran-3-yl]-6-methoxy-5-(4-methyl-1H-imidazol-1-yl)pyridine-2-carboxamide] | 0.423 |
| COc1nc(C(=O)NC2COc3cc(C)c(Cl)cc32)ccc1-n1cnc(C)c1 (centres unmarked) [Example 50, N-[5-chloro-6-methyl-2,3-dihydro-1-benzofuran-3-yl]-6-methoxy-5-(4-methyl-1H-imidazol-1-yl)pyridine-2-carboxamide] | 0.2 |

Same assay, conditions: human WT-APP overexpressing CHO cells; Aβ (1-42) ELISA; about 24 hours at 37° C.; free base or salt; read-out: Aβ 42B IC50 (μM) (Geometric Mean of 2-8 Determinations)

| SMILES | IC50 [µM] |
| --- | --- |
| COc1nc(C(=O)NCC2(c3cccc(C)c3)CCC2)cnc1-n1cnc(C)c1 [Example 10, 6-methoxy-5-(4-methyl-1H-imidazol-1-yl)-N-{[1-(3-methylphenyl)cyclobutyl]-methyl}pyrazine-2-carboxamide] | 0.827 |
| COc1cc(C(=O)NCC2(c3ccc(F)cc3)CC2)cnc1-n1cnc(C)c1 [Example 45, N-{[1-(4-fluorophenyl)-cyclopropyl]methyl}-5-methoxy-6-(4-methyl-1H-imidazol-1-yl)nicotinamide] | 2.23 |
| COc1nc(C(=O)NCC2(c3ccc(Cl)cc3)CCCC2)cnc1-n1cnc(C)c1 [Example 14, N-{[1-(4-chlorophenyl)cyclopentyl]methyl}-6-methoxy-5-(4-methyl-1H-imidazol-1-yl)pyrazine-2-carboxamide] | 1.45 |
| COc1nc(C(=O)NCC2(c3ccc(F)cc3)CCC2)cnc1-n1cnc(C)c1 [Example 11, N-{[1-(4-fluorophenyl)-cyclobutyl]methyl}-6-methoxy-5-(4-methyl-1H-imidazol-1-yl)pyrazine-2-carboxamide] | 1.38 |
| COc1nc(C(=O)N2CC[C@H](Oc3ccccc3C(F)(F)F)C2)cnc1-n1cnc(C)c1 [Example 8, 3-methoxy-2-(4-methyl-1H-imidazol-1-yl)-5-({(3S)-3-[2-(trifluoromethyl)-phenoxy]pyrrolidin-1-yl}carbonyl)pyrazine] | 0.535 |
| COc1nc(C(=O)NCC2(c3cccc(C)c3)CCC2)ccc1-n1cnc(C)c1 [Example 27, 6-methoxy-5-(4-methyl-1H-imidazol-1-yl)-N-{[1-(3-methylphenyl)cyclobutyl]-methyl}pyridine-2-carboxamide] | 0.438 |
| Cc1cn(-c2ncc(C(=O)NCC3(c4ccc(F)cc4)CC3)cc2Cl)cn1 [Example 35, 5-chloro-N-{[1-(4-fluorophenyl)cyclopropyl]-methyl}-6-(4-methyl-1H-imidazol-1-yl)nicotinamide] | 5.77 |
| COc1cc(C(=O)NCc2sc3c(F)ccc(F)c3c2Cl)ncc1-n1cnc(C)c1 [Example 22, N-[(3-chloro-4,7-difluoro-1-benzothien-2-yl)methyl]-4-methoxy-5-(4-methyl-1H-imidazol-1-yl)pyridine-2-carboxamide] | > 15.8 |
| COc1cc(C(=O)NCCc2c[nH]c3ccc(Cl)cc23)ncc1-n1cnc(C)c1 [Example 24, N-[2-(5-chloro-1H-indol-3-yl)ethyl]-4-methoxy-5-(4-methyl-1H-imidazol-1-yl)pyridine-2-carboxamide] | 18 |
| COc1cc(C(=O)N2CC[C@@H](Oc3ccccc3C(F)(F)F)C2)cnc1-n1cnc(C)c1 [Example 46, 3-methoxy-2-(4-methyl-1H-imidazol-1-yl)-5-({(3R)-3-[2-(trifluoromethyl)-phenoxy]pyrrolidin-1-yl}carbonyl)pyridine] | 2.3 |
| COc1nc(C(=O)NCc2cccc(C(F)(F)F)c2)ccc1-n1cnc(C)c1 [Example 30, 6-methoxy-5-(4-methyl-1H-imidazol-1-yl)-N-[3-(trifluoromethyl)benzyl]-pyridine-2-carboxamide] | 0.502 |
| COc1nc(C(=O)NC(C)(C)c2ccc(F)cc2)ccc1-n1cnc(C)c1 [Example 32, N-[1-(4-fluorophenyl)-1-methylethyl]-6-methoxy-5-(4-methyl-1H-imidazol-1-yl)pyridine-2-carboxamide] | 2.01 |
| COc1nc(C(=O)NCC2CCCC2)cnc1-n1cnc(C)c1 [Example 19, N-(cyclopentylmethyl)-6-methoxy-5-(4-methyl-1H-imidazol-1-yl)pyrazine-2-carboxamide] | 5.77 |
| COc1nc(C(=O)NCC2(c3ccc(Cl)cc3)CC2)ccc1-n1cnc(C)c1 [Example 3, N-{[1-(4-Chlorophenyl)cyclopropyl]methyl}-6-methoxy-5-(4-methyl-1H-imidazol-1-yl)pyridine-2-carboxamide] | 0.186 |
| COc1cc(C(=O)N2CC[C@H](Oc3ccccc3C(F)(F)F)C2)ncc1-n1cnc(C)c1 [Example 20, 4-methoxy-5-(4-methyl-1H-imidazol-1-yl)-2-({(3S)-3-[2-(trifluoromethyl)-phenoxy]pyrrolidin-1-yl}carbonyl)pyridine] | 5.33 |
| COc1nc(C(=O)NCc2cccc(Cl)c2C)ccc1-n1cnc(C)c1 [Example 41, N-(3-chloro-2-methylbenzyl)-6-methoxy-5-(4-methyl-1H-imidazol-1-yl)pyridine-2-carboxamide] | 0.332 |
| COc1nc(C(=O)NCc2cnc(-c3ccccc3)s2)cnc1-n1cnc(C)c1 [Example 16, 6-methoxy-5-(4-methyl-1H-imidazol-1-yl)-N-[(2-phenyl-1,3-thiazol-5-yl)methyl]pyrazine-2-carboxamide] | 1.94 |
| COc1nc(C(=O)NCC2(c3ccc(F)cc3)CC2)cnc1-n1cnc(C)c1 [Example 6, N-{[1-(4-Fluorophenyl)cyclopropyl]methyl}-6-methoxy-5-(4-methyl-1H-imidazol-1-yl)pyrazine-2-carboxamide] | 1.3 |
| COc1nc(C(=O)NCc2cc(Cl)cc(Cl)c2)ccc1-n1cnc(C)c1 [Example 43, N-(3,5-dichlorobenzyl)-6-methoxy-5-(4-methyl-1H-imidazol-1-yl)pyridine-2-carboxamide] | 0.216 |
| COc1nc(C(=O)NCc2cccc(C(F)(F)F)c2)cnc1-n1cnc(C)c1 [Example 4, 6-Methoxy-5-(4-methyl-1H-imidazol-1-yl)-N-[3-(trifluoromethyl)benzyl]pyrazine-2-carboxamide] | 1.75 |
| COc1nc(C(=O)NC(C)(C)c2ccc(F)cc2)cnc1-n1cnc(C)c1 [Example 17, N-[1-(4-fluorophenyl)-1-methylethyl]-6-methoxy-5-(4-methyl-1H-imidazol-1-yl)pyrazine-2-carboxamide] | 2.41 |
| COc1nc(C(=O)NCc2ccc(OC(F)(F)F)cc2)ccc1-n1cnc(C)c1 [Example 31, 6-methoxy-5-(4-methyl-1H-imidazol-1-yl)-N-[4-(trifluoromethoxy)benzyl]-pyridine-2-carboxamide] | 1.01 |
| Cc1cn(-c2ncc(C(=O)NCC3(c4ccc(Cl)cc4)CC3)cc2Cl)cn1 [Example 34, 5-chloro-N-{[1-(4-chlorophenyl)cyclopropyl]methyl}-6-(4-methyl-1H-imidazol-1-yl)nicotinamide] | 1.37 |
| Cc1cn(-c2ccc(C(=O)NCC3(c4cccc(C(F)(F)F)c4)CCOCC3)cn2)cn1 [Example 1, 6-(4-Methyl-1H-imidazol-1-yl)-N-({4-[3-(trifluoromethyl)phenyl]tetrahydro-2H-pyran-4-yl}methyl)nicotinamide] | 13.6 |
| COc1nc(C(=O)N[C@@H]2CCc3ccc(Cl)cc32)ccc1-n1cnc(C)c1 [Example 39, N-[(1R)-6-chloro-2,3-dihydro-1H-inden-1-yl]-6-methoxy-5-(4-methyl-1H-imidazol-1-yl)pyridine-2-carboxamide] | 1.34 |
